How the values were obtained:
Type in all cases: functional
OVCAR-5 = assay: Anticancer activity against Homo sapiens (human) OVCAR5 cells assessed as cell growth promotion at 10 uM after 48 hr by SRB assay
MDA-MB-468 = assay: Anticancer activity against Homo sapiens (human) MDA-MB-468 cells assessed as cell growth promotion at 10 uM after 48 hr by SRB assay
SF-295 = assay: Anticancer activity against Homo sapiens (human) SF295 cells assessed as cell growth promotion at 10 uM after 48 hr by SRB assay
UACC-257 = assay: Anticancer activity against Homo sapiens (human) UACC257 cells assessed as cell growth promotion at 10 uM after 48 hr by SRB assay
NCI-H522 = assay: Anticancer activity against Homo sapiens (human) NCI-H522 cells assessed as cell growth promotion at 10 uM after 48 hr by SRB assay
KM12 = assay: Anticancer activity against Homo sapiens (human) KM12 cells assessed as cell growth promotion at 10 uM after 48 hr by SRB assay
OVCAR-3 = assay: Anticancer activity against Homo sapiens (human) OVCAR3 cells assessed as cell growth promotion at 10 uM after 48 hr by SRB assay
SR = assay: Anticancer activity against Homo sapiens (human) SR cells assessed as cell growth promotion at 10 uM after 48 hr by SRB assay
BT-549 = assay: Anticancer activity against Homo sapiens (human) BT549 cells assessed as cell growth promotion at 10 uM after 48 hr by SRB assay
UACC-62 = assay: Anticancer activity against Homo sapiens (human) UACC62 cells assessed as cell growth promotion at 10 uM after 48 hr by SRB assay
A498 = assay: Anticancer activity against Homo sapiens (human) A498 cells assessed as cell growth promotion at 10 uM after 48 hr by SRB assay
A549 = assay: Anticancer activity against Homo sapiens (human) A549/ATCC cells assessed as cell growth promotion at 10 uM after 48 hr by SRB assay
SW-620 = assay: Anticancer activity against Homo sapiens (human) SW620 cells assessed as cell growth promotion at 10 uM after 48 hr by SRB assay
M14 = assay: Anticancer activity against Homo sapiens (human) M14 cells assessed as cell growth promotion at 10 uM after 48 hr by SRB assay
CAKI-1 = assay: Anticancer activity against Homo sapiens (human) CAKI-1 cells assessed as cell growth promotion at 10 uM after 48 hr by SRB assay
Malme-3M = assay: Anticancer activity against Homo sapiens (human) MALME-3M cells assessed as cell growth promotion at 10 uM after 48 hr by SRB assay
NCI/ADR-RES = assay: Anticancer activity against Homo sapiens (human) NCI/ADR-RES cells assessed as cell growth promotion at 10 uM after 48 hr by SRB assay
RXF 393 = assay: Anticancer activity against Homo sapiens (human) RXF393 cells assessed as cell growth promotion at 10 uM after 48 hr by SRB assay
TK-10 = assay: Anticancer activity against Homo sapiens (human) TK10 cells assessed as cell growth promotion at 10 uM after 48 hr by SRB assay
Hs-578T = assay: Anticancer activity against Homo sapiens (human) Hs 578T cells assessed as cell growth promotion at 10 uM after 48 hr by SRB assay
SK-MEL-2 = assay: Anticancer activity against Homo sapiens (human) SK-MEL-2 cells assessed as cell growth promotion at 10 uM after 48 hr by SRB assay
COLO 205 = assay: Anticancer activity against Homo sapiens (human) COLO205 cells assessed as cell growth promotion at 10 uM after 48 hr by SRB assay
DU-145 = assay: Anticancer activity against Homo sapiens (human) DU145 cells assessed as cell growth promotion at 10 uM after 48 hr by SRB assay
SF-268 = assay: Anticancer activity against Homo sapiens (human) SF268 cells assessed as cell growth promotion at 10 uM after 48 hr by SRB assay
K562 = assay: Anticancer activity against Homo sapiens (human) K562 cells assessed as cell growth promotion at 10 uM after 48 hr by SRB assay
SK-MEL-28 = assay: Anticancer activity against Homo sapiens (human) SK-MEL-28 cells assessed as cell growth promotion at 10 uM after 48 hr by SRB assay
OVCAR-8 = assay: Anticancer activity against Homo sapiens (human) OVCAR8 cells assessed as cell growth promotion at 10 uM after 48 hr by SRB assay
HCC 2998 = assay: Anticancer activity against Homo sapiens (human) HCC2998 cells assessed as cell growth promotion at 10 uM after 48 hr by SRB assay
NCI-H322M = assay: Anticancer activity against Homo sapiens (human) NCI-H322M cells assessed as cell growth promotion at 10 uM after 48 hr by SRB assay
PC-3 = assay: Anticancer activity against Homo sapiens (human) PC3 cells assessed as cell growth promotion at 10 uM after 48 hr by SRB assay
MOLT-4 = assay: Anticancer activity against Homo sapiens (human) MOLT4 cells assessed as cell growth promotion at 10 uM after 48 hr by SRB assay
NCI-H226 = assay: Anticancer activity against Homo sapiens (human) NCI-H226 cells assessed as cell growth promotion at 10 uM after 48 hr by SRB assay
NCI-H23 = assay: Anticancer activity against Homo sapiens (human) NCI-H23 cells assessed as cell growth promotion at 10 uM after 48 hr by SRB assay
ACHN = assay: Anticancer activity against Homo sapiens (human) ACHN cells assessed as cell growth promotion at 10 uM after 48 hr by SRB assay
MDA-MB-435 = assay: Anticancer activity against Homo sapiens (human) MDA-MB-435 cells assessed as cell growth promotion at 10 uM after 48 hr by SRB assay
HOP-62 = assay: Anticancer activity against Homo sapiens (human) HOP62 cells assessed as cell growth promotion at 10 uM after 48 hr by SRB assay
OVCAR-4 = assay: Anticancer activity against Homo sapiens (human) OVCAR4 cells assessed as cell growth promotion at 10 uM after 48 hr by SRB assay
SK-OV-3 = assay: Anticancer activity against Homo sapiens (human) SKOV3 cells assessed as cell growth promotion at 10 uM after 48 hr by SRB assay
SK-MEL-5 = assay: Anticancer activity against Homo sapiens (human) SK-MEL-5 cells assessed as cell growth promotion at 10 uM after 48 hr by SRB assay
HOP-92 = assay: Anticancer activity against Homo sapiens (human) HOP92 cells assessed as cell growth promotion at 10 uM after 48 hr by SRB assay

SMILES	Activity (OVCAR-5)	Activity (MDA-MB-468)	Activity (SF-295)	Activity (UACC-257)	Activity (NCI-H522)	Activity (KM12)	Activity (OVCAR-3)	Activity (SR)	Activity (BT-549)	Activity (UACC-62)	Activity (A498)	Activity (A549)	Activity (SW-620)	Activity (M14)	Activity (CAKI-1)	Activity (Malme-3M)	Activity (NCI/ADR-RES)	Activity (TK-10)	Activity (Hs-578T)	Activity (SK-MEL-2)	further results
Cc1nc(SCC(=O)Nc2nc(-c3ccc(Cl)cc3)cs2)n(Nc2ccccc2)c1C	65.75%	21.05%	31.02%	46.91%	47.28%	57.14%	61.29%	12.66%	54%	34.83%	74.31%	28.85%	73.1%	47.55%	36.74%	99.3%	20.41%	56.83%	70.58%	84.99%	Activity (RXF 393): 72.14%; Activity (COLO 205): 65.21%; Activity (DU-145): 65.41%; Activity (SF-268): 56.4%; Activity (K562): 27.56%; Activity (SK-MEL-28): 54.29%; Activity (OVCAR-8): 31.91%; Activity (HCC 2998): 69.51%; Activity (NCI-H322M): 70.81%; Activity (PC-3): 59.13%; Activity (MOLT-4): 41.02%; Activity (NCI-H226): 59.84%; Activity (NCI-H23): 12.2%; Activity (ACHN): 49.37%; Activity (MDA-MB-435): 41%; Activity (HOP-62): 48.49%; Activity (OVCAR-4): 35.93%; Activity (SK-OV-3): 68.56%; Activity (SK-MEL-5): 10.19%
COc1ccc(Nn2c(SCC(=O)Nc3nccs3)nc(C)c2C)cc1	89.33%	94.85%	91.49%	108.29%	95.16%	96.74%	113.42%	104%	105.55%	95.78%	99.48%	104.98%	113.7%	107.71%	90.35%	119.7%	92.35%	105.37%	109.7%	92.7%	Activity (HOP-92): 117.01%; Activity (RXF 393): 126.87%; Activity (COLO 205): 107.27%; Activity (DU-145): 112.49%; Activity (SF-268): 103.59%; Activity (K562): 99.68%; Activity (SK-MEL-28): 113.96%; Activity (OVCAR-8): 103.25%; Activity (HCC 2998): 110.49%; Activity (NCI-H322M): 110.58%; Activity (PC-3): 103.43%; Activity (MOLT-4): 100.89%; Activity (NCI-H226): 105.15%; Activity (NCI-H23): 106.56%; Activity (ACHN): 100.51%; Activity (MDA-MB-435): 97.68%; Activity (HOP-62): 106.4%; Activity (OVCAR-4): 110.54%; Activity (SK-OV-3): 108.56%; Activity (SK-MEL-5): 102.75%
Cc1nc(SCC(=O)Nc2nccs2)n(Nc2ccccc2)c1C	80.93%	105.55%	86.6%	94.83%	102.09%	109.29%	116.22%	100.2%	96.32%	94.24%	101.7%	98.55%	116.34%	96.9%	102.08%	121.77%	96.1%	111.75%	115.31%	106.73%	Activity (HOP-92): 76.48%; Activity (RXF 393): 83.96%; Activity (COLO 205): 117.71%; Activity (DU-145): 116.36%; Activity (SF-268): 106.58%; Activity (K562): 101.35%; Activity (SK-MEL-28): 99.72%; Activity (OVCAR-8): 95.17%; Activity (HCC 2998): 101.96%; Activity (NCI-H322M): 118.03%; Activity (PC-3): 93.56%; Activity (MOLT-4): 108.49%; Activity (NCI-H226): 100.29%; Activity (NCI-H23): 97.67%; Activity (ACHN): 95.27%; Activity (MDA-MB-435): 104.58%; Activity (HOP-62): 83.75%; Activity (OVCAR-4): 103.25%; Activity (SK-OV-3): 102.5%; Activity (SK-MEL-5): 94.75%
COc1ccc(Nn2c(SCC(=O)Nc3nc(-c4ccc(Cl)cc4)cs3)nc(C)c2C)cc1	111.33%	26.17%	43.89%	48.91%	66.22%	43.08%	60.75%	40.3%	53.32%	49.53%	69.49%	44%	75.2%	62.46%	34.44%	99.15%	23.11%	68.5%	86.14%	90.48%	Activity (HOP-92): 38.65%; Activity (COLO 205): 79.56%; Activity (DU-145): 79.62%; Activity (SF-268): 66.13%; Activity (K562): 26.88%; Activity (SK-MEL-28): 82.63%; Activity (OVCAR-8): 43.88%; Activity (HCC 2998): 54.24%; Activity (NCI-H322M): 111.9%; Activity (PC-3): 35.69%; Activity (MOLT-4): 36.1%; Activity (NCI-H226): 60.46%; Activity (NCI-H23): 31.88%; Activity (ACHN): 52.04%; Activity (MDA-MB-435): 50.36%; Activity (HOP-62): 100.44%; Activity (OVCAR-4): 30.81%; Activity (SK-OV-3): 81.45%; Activity (SK-MEL-5): -21.47%
